The text below walks through data of patent US20220356186A1, “PERK INHIBITING PYRROLOPYRIMIDINE COMPOUNDS” (HiberCell, Inc., priority 2019, published 2022).

Like-named read-outs stand apart in the source and are kept apart here. Where only a bound is given, the exact number is not on record here.

Assay [1] deals with T1, EIF2AK3 (PERK) catalytic domain (amino acids 536-1116) (Homo sapiens, UniProt Q9NZJ5).
T1 construct: EIF2AK3 (PERK) catalytic domain (amino acids 536-1116)
T1 sequence (Q9NZJ5 536-1116): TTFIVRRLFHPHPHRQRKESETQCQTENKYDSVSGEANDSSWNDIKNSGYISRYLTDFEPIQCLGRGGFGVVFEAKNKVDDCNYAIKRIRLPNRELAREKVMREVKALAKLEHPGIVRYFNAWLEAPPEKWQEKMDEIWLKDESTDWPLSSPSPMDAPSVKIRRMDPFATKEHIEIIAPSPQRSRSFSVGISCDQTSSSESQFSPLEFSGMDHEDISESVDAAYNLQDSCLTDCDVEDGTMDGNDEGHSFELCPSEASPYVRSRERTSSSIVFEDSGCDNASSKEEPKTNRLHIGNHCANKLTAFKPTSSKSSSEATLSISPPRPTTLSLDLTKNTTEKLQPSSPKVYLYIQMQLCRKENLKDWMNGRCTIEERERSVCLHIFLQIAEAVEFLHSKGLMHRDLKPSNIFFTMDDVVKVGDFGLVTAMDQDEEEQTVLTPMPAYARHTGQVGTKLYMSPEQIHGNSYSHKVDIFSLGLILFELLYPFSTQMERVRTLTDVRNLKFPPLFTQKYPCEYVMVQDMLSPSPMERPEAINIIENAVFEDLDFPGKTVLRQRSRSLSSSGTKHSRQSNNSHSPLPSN
As to the kind of experiment: PERK in vitro activity assay (isolated), TR-FRET kinase assay. The format is biochemical. Conditions: isolated PERK enzyme, 1.5 μM ATP; read-out: Biochemical IC50. The essentials: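 TR-FRET read-out: after EDTA stop (10 mM final), Tb-labelled phospho-eIF2a antibody (2 nM) for 90 min; IC50 via 4-parameter nonlinear fit. Reaction: PERK aa 536-1116, GFP-eIF2a 100-200 nM, HEPES pH 7.5 with MgCl2/EGTA/Brij-35, 45 min, room temperature, started by enzyme.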
For orientation: Time-resolved FRET reads energy transfer from a long-lived donor to a nearby acceptor.

The subject of assay [2] is GFP-eIF2α in HEK293 cells. As to the kind of experiment: PERK cellular assay, TR-FRET in HEK293-EGFP-eIF2a cells after tunicamycin-induced ER stress. The format is cell-based. Conditions: HEK293-EGFP-eIF2a cells, tunicamycin 2 hours, read-out: Cellular eIF2α IC50. Put shortly:
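Compounds were added 30 min before a 2 h tunicamycin ([…]) challenge of lentivirally made GFP-eIF2α HEK293 cells, 5000/well; lysate TR-FRET ratio was the read-out.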

Broadly, the IC50 is the point on the concentration scale where inhibition reaches its midpoint. On to `Cc1cc(NC(=O)C(O)c2ccccc2C(F)(F)F)ccc1-c1cn(C)c2ncnc(N)c12` (stereo not shown) [Example 45, N-(4-(4-amino-7-methyl-7H-pyrrolo[2,3-d]pyrimidin-5-yl)-3-methylphenyl)-2-hydroxy-2-(2-(trifluoromethyl)phenyl)acetamide], for which the IC50 in assay [1] fell in the range of 1 to 25 nM; in assay [2] (Homo sapiens, HEK293, 2 h), 101 to 250 nM.

In the case of `Cc1nc(N)c2c(-c3ccc(NC(=O)C(O)c4ccccc4C(F)(F)F)cc3C)cn(C)c2n1` (stereo not shown) [Example 46, N-(4-(4-amino-2,7-dimethyl-7H-pyrrolo[2,3-d]pyrimidin-5-yl)-3-methylphenyl)-2-hydroxy-2-(2-(trifluoromethyl)phenyl)acetamide], the IC50 lay within 251 to 500 nM in assay [1] and 2000 to 3000 nM in assay [2] (Homo sapiens, HEK293, 2 h).

For `Cc1cc(NC(=O)C(O)c2cccc(C(F)(F)F)c2)ccc1-c1cn(C)c2ncnc(N)c12` (stereo not shown) [Example 47, N-(4-(4-amino-7-methyl-7H-pyrrolo[2,3-d]pyrimidin-5-yl)-3-methylphenyl)-2-hydroxy-2-(3-(trifluoromethyl)phenyl)acetamide], the IC50 in assay [1] and in assay [2] was 1 to 25 nM in each case.

For the compound `Cc1cc(NC(=O)C(O)c2cccc(C(F)(F)F)c2)ccc1-c1cn(C)c2ncnc(N)c12` (stereo not shown) [Example 48, N-(4-(4-amino-7-methyl-7H-pyrrolo[2,3-d]pyrimidin-5-yl)-3-methylphenyl)-2-hydroxy-2-(3-(trifluoromethyl)phenyl)acetamide], the IC50 in assay [1] is 1 to 25 nM; in assay [2] it was 51 to 100 nM.

For `Cc1nc(N)c2c(-c3ccc(NC(=O)C(O)c4cccc(C(F)(F)F)c4)cc3C)cn(C)c2n1` (stereo not shown) [Example 49, N-(4-(4-amino-2,7-dimethyl-7H-pyrrolo[2,3-d]pyrimidin-5-yl)-3-methylphenyl)-2-hydroxy-2-(3-(trifluoromethyl)phenyl)acetamide], the IC50 fell in the range of 1 to 25 nM in assay [1] and 26 to 50 nM in assay [2].

Consider `Cc1nc(N)c2c(-c3ccc(NC(=O)C(O)c4cccc(C(F)(F)F)c4)cc3C)cn(C)c2n1` (stereo not shown) [Example 50, N-(4-(4-amino-2,7-dimethyl-7H-pyrrolo[2,3-d]pyrimidin-5-yl)-3-methylphenyl)-2-hydroxy-2-(3-(trifluoromethyl)phenyl)acetamide], for which the IC50 in assay [1] and in assay [2] was 1 to 25 nM throughout.

Regarding `Cc1nc(N)c2c(-c3ccc(NC(=O)C(O)c4cccc(C(F)(F)F)c4)cc3C)cn(C)c2n1` (stereo not shown) [Example 51, N-(4-(4-amino-2,7-dimethyl-7H-pyrrolo[2,3-d]pyrimidin-5-yl)-3-methylphenyl)-2-hydroxy-2-(3-(trifluoromethyl)phenyl)acetamide], the values for the IC50 in assay [1] and in assay [2] were 101 to 250 nM and 501 to 1000 nM, respectively.

For the compound `Cc1nc(N)c2c(-c3ccc(NC(=O)C(O)c4cc(F)cc(F)c4)cc3C)cn(C)c2n1` (stereo not shown) [Example 52, N-(4-(4-amino-2,7-dimethyl-7H-pyrrolo[2,3-d]pyrimidin-5-yl)-3-methylphenyl)-2-(3,5-difluorophenyl)-2-hydroxyacetamide], the IC50 in assay [1] and in assay [2] was 1 to 25 nM throughout.

On to `Cc1nc(N)c2c(-c3ccc(NC(=O)C(O)c4cc(F)cc(F)c4)cc3C)cn(C)c2n1` (stereo not shown) [Example 53, N-(4-(4-amino-2,7-dimethyl-7H-pyrrolo[2,3-d]pyrimidin-5-yl)-3-methylphenyl)-2-(3,5-difluorophenyl)-2-hydroxyacetamide], for which the IC50 in assay [1] was in the range of 26 to 50 nM; in assay [2], 251 to 500 nM.

Consider `Cc1cc(F)cc(C(O)C(=O)Nc2ccc(-c3cn(C)c4nc(C)nc(N)c34)c(C)c2)c1` (stereo not shown) [Example 56, N-(4-(4-amino-2,7-dimethyl-7H-pyrrolo[2,3-d]pyrimidin-5-yl)-3-methylphenyl)-2-(3-fluoro-5-methylphenyl)-2-hydroxyacetamide], for which the IC50 in assay [1] and in assay [2] was 1 to 25 nM each time.

Take `Cc1cc(F)cc(C(O)C(=O)Nc2ccc(-c3cn(C)c4nc(C)nc(N)c34)c(C)c2)c1` (stereo not shown) [Example 57, N-(4-(4-amino-2,7-dimethyl-7H-pyrrolo[2,3-d]pyrimidin-5-yl)-3-methylphenyl)-2-(3-fluoro-5-methylphenyl)-2-hydroxyacetamide]: the IC50 in assay [1] lay in the range of 26 to 50 nM; in assay [2] it was 101 to 250 nM.

As to `CCc1cc(F)cc(C(O)C(=O)Nc2ccc(-c3cn(C)c4nc(C)nc(N)c34)c(C)c2)c1` (stereo not shown) [Example 58, N-(4-(4-amino-2,7-dimethyl-7H-pyrrolo[2,3-d]pyrimidin-5-yl)-3-methylphenyl)-2-(3-ethyl-5-fluorophenyl)-2-hydroxyacetamide], the values for the IC50 in assay [1] and in assay [2] were 1 to 25 nM and 51 to 100 nM, respectively.

Turning to `CCc1cc(F)cc(C(O)C(=O)Nc2ccc(-c3cn(C)c4nc(C)nc(N)c34)c(C)c2)c1` (stereo not shown) [Example 59, N-(4-(4-amino-2,7-dimethyl-7H-pyrrolo[2,3-d]pyrimidin-5-yl)-3-methylphenyl)-2-(3-ethyl-5-fluorophenyl)-2-hydroxyacetamide], the values for the IC50 in assay [1] and in assay [2] were 51 to 100 nM and 251 to 500 nM, respectively.

On to `Cc1cccc(C(O)C(=O)Nc2ccc(-c3cn(C)c4ncnc(N)c34)c(C)c2)n1` (stereo not shown) [Example 60, N-(4-(4-amino-7-methyl-7H-pyrrolo[2,3-d]pyrimidin-5-yl)-3-methylphenyl)-2-hydroxy-2-(6-methylpyridin-2-yl)acetamide], for which the IC50 in assay [1] is 1 to 25 nM; in assay [2] (Homo sapiens, HEK293, 2 h), 101 to 250 nM.

Regarding `Cc1nc(N)c2c(-c3ccc(NC(=O)C(O)c4cccc(C(F)(F)F)n4)cc3C)cn(C)c2n1` (stereo not shown) [Example 61, N-(4-(4-amino-2,7-dimethyl-7H-pyrrolo[2,3-d]pyrimidin-5-yl)-3-methylphenyl)-2-hydroxy-2-(6-(trifluoromethyl)pyridin-2-yl)acetamide], the IC50 fell in the range of 101 to 250 nM in assay [1] and 501 to 1000 nM in assay [2].

As to `Cc1nc(N)c2c(-c3ccc(NC(=O)C(O)c4cccc(C(F)(F)F)n4)cc3C)cn(C)c2n1` (stereo not shown) [Example 62, N-(4-(4-amino-2,7-dimethyl-7H-pyrrolo[2,3-d]pyrimidin-5-yl)-3-methylphenyl)-2-hydroxy-2-(6-(trifluoromethyl)pyridin-2-yl)acetamide], the IC50 in assay [1] is 51 to 100 nM; in assay [2], 2000 to 3000 nM.

Turning to `Cc1nc(N)c2c(-c3ccc(NC(=O)C(O)c4cccc5c4OCC5)cc3C)cn(C)c2n1` (stereo not shown) [Example 63, N-(4-(4-amino-2,7-dimethyl-7H-pyrrolo[2,3-d]pyrimidin-5-yl)-3-methylphenyl)-2-(2,3-dihydrobenzofuran-7-yl)-2-hydroxyacetamide], the IC50 in assay [1] lay in the range of 101 to 250 nM; in assay [2] (Homo sapiens, HEK293, 2 h), 2000 to 3000 nM.

With `CCc1nc(N)c2c(-c3ccc(NC(=O)C(O)c4cccc(F)c4)cc3C)cn(C)c2n1` (stereo not shown) [Example 67, N-(4-(4-amino-2-ethyl-7-methyl-7H-pyrrolo[2,3-d]pyrimidin-5-yl)-3-methylphenyl)-2-(3-fluorophenyl)-2-hydroxyacetamide], the IC50 lay within 101 to 250 nM in assay [1] and 1000 to 2000 nM in assay [2] (Homo sapiens, HEK293, 2 h).

For the compound `CCc1cc(NC(=O)C(O)c2cccc(F)c2)ccc1-c1cn(C)c2nc(C)nc(N)c12` (stereo not shown) [Example 68, N-(4-(4-amino-2-2,7-dimethyl-7H-pyrrolo[2,3-d]pyrimidin-5-yl)-3-ethylphenyl)-2-(3-fluorophenyl)-2-hydroxyacetamide], the values for the IC50 in assay [1] and in assay [2] were 1 to 25 nM and 26 to 50 nM, respectively.

`CCc1cc(NC(=O)C(O)c2cccc(F)c2)ccc1-c1cn(C)c2nc(C)nc(N)c12` (stereo not shown) [Example 69, N-(4-(4-amino-2,7-dimethyl-7H-pyrrolo[2,3-d]pyrimidin-5-yl)-3-ethylphenyl)-2-(3-fluorophenyl)-2-hydroxyacetamide]: the IC50 lay in the range of 101 to 250 nM in assay [1] and 2000 to 3000 nM in assay [2].

As for `Cc1nc(N)c2c(-c3ccc(NC(=O)C(O)c4ccccc4Cl)cc3F)cn(C)c2n1` (stereo not shown) [Example 70, N-(4-(4-amino-2,7-dimethyl-7H-pyrrolo[2,3-d]pyrimidin-5-yl)-3-fluorophenyl)-2-(2-chlorophenyl)-2-hydroxyacetamide], the IC50 was 1000 to 2000 nM in assay [1] and > 5000 nM in assay [2] (Homo sapiens, HEK293, 2 h).

Consider `Cc1cccc(C(O)C(=O)Nc2ccc(-c3cn(C)c4nc(C)nc(N)c34)c(F)c2)c1` (stereo not shown) [Example 73, N-(4-(4-amino-2,7-dimethyl-7H-pyrrolo[2,3-d]pyrimidin-5-yl)-3-fluorophenyl)-2-hydroxy-2-(m-tolyl)acetamide], for which the IC50 in assay [1] is 26 to 50 nM; in assay [2], 501 to 1000 nM.

In the case of `Cc1cccc(C(O)C(=O)Nc2ccc(-c3cn(C)c4nc(C)nc(N)c34)c(F)c2)c1` (stereo not shown) [Example 74, N-(4-(4-amino-2,7-dimethyl-7H-pyrrolo[2,3-d]pyrimidin-5-yl)-3-fluorophenyl)-2-hydroxy-2-(m-tolyl)acetamide], the IC50 in assay [1] and in assay [2] was 1 to 25 nM in each case.
